The results in this text go back to PMC12334608 (Nature Communications, 2025).

Where a chain is given by its changes, count along the chain named. Values joined by “and” are separate entries in the source; they are usually repeats but may differ in a detail not shown here. Equal values may be shown once.

For one test, the target named is T1, ACOX-1.1(R343A) (Caenorhabditis elegans, UniProt O62140, R343A).
T1 sequence (O62140 1-674 R343A): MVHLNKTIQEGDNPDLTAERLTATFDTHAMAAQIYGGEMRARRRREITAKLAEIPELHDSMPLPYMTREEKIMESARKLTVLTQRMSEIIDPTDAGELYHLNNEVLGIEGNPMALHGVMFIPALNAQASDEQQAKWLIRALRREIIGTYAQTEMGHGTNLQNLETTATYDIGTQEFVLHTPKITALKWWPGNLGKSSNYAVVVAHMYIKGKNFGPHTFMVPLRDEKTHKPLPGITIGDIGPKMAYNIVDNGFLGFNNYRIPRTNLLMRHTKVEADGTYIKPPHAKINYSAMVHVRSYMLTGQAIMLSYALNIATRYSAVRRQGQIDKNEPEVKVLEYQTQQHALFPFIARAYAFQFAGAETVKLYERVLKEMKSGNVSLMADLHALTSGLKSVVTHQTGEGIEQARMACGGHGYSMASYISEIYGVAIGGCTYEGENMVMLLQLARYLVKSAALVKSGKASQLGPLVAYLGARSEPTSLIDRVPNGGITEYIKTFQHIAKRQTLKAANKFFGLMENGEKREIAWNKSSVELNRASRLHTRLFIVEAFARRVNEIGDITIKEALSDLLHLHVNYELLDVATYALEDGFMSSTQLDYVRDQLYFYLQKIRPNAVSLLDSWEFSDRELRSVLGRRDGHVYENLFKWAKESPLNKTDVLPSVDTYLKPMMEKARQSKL
Briefly: Enzyme-coupled kinetic assay, ACOX-1.1. Format: biochemical, C. elegans. The conditions noted are these: varying ATP.

A further test addresses T2, ACOX-1.1 (Caenorhabditis elegans, UniProt O62140).
T2 sequence (O62140 1-674): T1 sequence (O62140 1-674 R343A) with A343R
Briefly: Analysis of enzyme activity. It counts as biochemical, C. elegans. The settings on record: 10 μM FAD, 350 μM ATP.

Test [1] deals with T3, apo ACOX-1.1 (Caenorhabditis elegans, UniProt O62140).
T3 sequence (O62140 1-674): T1 sequence (O62140 1-674 R343A) with A343R
Briefly: Enzyme-coupled kinetic assay, wild-type apo ACOX-1.1. It counts as biochemical, C. elegans. The settings on record: EC50 for ATP.

In test [2] the target is T3, apo ACOX-1.1. Briefly: FAD and ATP dissociation constants by fluorescence polarization. Format: binding, C. elegans. The conditions noted are these: KD of ACOX-1.1 for ATP, 4 μM apo ACOX-1.1, 100 nM FAD; 95% CI: 6.1–27.5 μM. Background: In fluorescence polarisation assays a small probe gives low polarisation when free and higher when bound to something large.
The next test has as its target T4, ACOX-1.1(K391N) (Caenorhabditis elegans, UniProt O62140, K391N).
T4 sequence (O62140 1-674 K391N): T1 sequence (O62140 1-674 R343A) with A343R, K391N
Briefly: Enzyme-coupled kinetic assay, ACOX-1.1. It counts as biochemical, C. elegans.

Usually EC50 stands for the concentration giving half of the maximal effect. As usually defined, the Kd is the concentration at which binding is half-saturated. A higher Kd goes with weaker binding. On to `Nc1ncnc2c1ncn2[C@@H]1O[C@H](COP(=O)(O)OP(=O)(O)OP(=O)(O)O)[C@@H](O)[C@H]1O` [ATP], for which, at ACOX-1.1(R343A), the “influence of ATP on the activity of the enzyme” value is listed as “no influence on the activity of the enzyme”. On ACOX-1.1, the “effect on rate of product formation (HPLC)” value is recorded as “increases the rate of product formation”. For the same molecule, the EC50 is 69.4 µM and ~69.4 µM at apo ACOX-1.1 [1] (10 μM FAD, 95% CI: 54.8–87.1 μM); 111 µM at apo ACOX-1.1 [1] (200 μM FAD, 95% CI: 40.5–328.8 μM). This molecule came in with a dissociation constant (Kd) on apo ACOX-1.1 [2] of 20.7 µM. For the same molecule, at ACOX-1.1(K391N), the “response of enzyme activity to ATP” value was “did not respond to ATP”.
